Key:
hESCs [1] = test: Cell adhesion assay; assay type: cell-based, human
Method: Cell adhesion assays were performed in 96-well microtiter plates coated with Matrigel. After trypsin, hESCs were resuspended in the chemically-defined media containing the desired compounds. Cells were then added to the microtiter wells and incubated for 3 h at 37° C. Unbound and loosely bound cells were removed by shaking and washing, and the remaining cells were then fixed immediately. The wells were washed 3 times with 200 μl of H2O, and attached cells were stained with Crystal Violet (Sigma). The absorbance of each well at 570 nm was then measured. For experiments with blocking antibodies, cells were pre-incubated with antibodies on ice for 30 min, and adhesion assays were performed in the presence of antibodies. Each sample was assayed independently for three times.

[2] = system: mouse P1 cortical explants; test: Axon outgrowth from mouse P1 cortical explants; assay type: cell-based; settings: 3 μM; added 20 minutes after plating; 4 days in culture; DMSO control
Method: Compounds of formula I and III (i.e., Tvz and Ptn) are effective at promoting axonal regeneration and functional recovery in injured central nervous system. […] Tzv (3 μM) was tested on mouse P1 cortical explants, with axon outgrowth as an outcome read-out. Tzv was added to the medium 20 minutes after plating, with DMSO as a control. […] Accordingly, in some embodiments, a compound of the present invention is administered to an individual having a central nervous system injury or who is in need or would otherwise benefit from axonal regeneration.

hESCs [3] = test: Karyotyping (G-banding) of long-term expanded hESCs; assay type: cell-based, human; settings: more than 20 generations; chemically-defined medium
Method: Teratoma formation experiments were performed by injecting 3-5 million hESCs (maintained in the presence of compounds Tvz or Ptn) under the kidney capsule of nude mice. After 4-5 weeks, all mice developed teratomas, which were removed and then immunohistologically analyzed by The Scripps Research Institute Research Histology Service and Animal Resources. Compounds treated cells were karyotyped by standard G-banding at the Children's Hospital Oakland, Cytogenetics Laboratory. No chromosomal abnormality was found in the 10 randomly picked nuclei.

## O=C(NCc1ccccc1)c1csc(Nc2ccncn2)n1 [Tzv, N-benzyl-2-(pyrimidin-4-ylamino)thiazole-4-carboxamide]
hESCs [1]
  adhesion of dissociated hESCs to Matrigel or laminin: dramatically increased adhesion
  adhesion of hESCs to gelatin or poly-lysine: not affected
[2]
  axon outgrowth: dramatic effect in promoting axon outgrowth
hESCs [3]
  karyotype of hESCs serially passaged in compound-containing medium: normal karyotype
